This is an account of results in US8536204B2, “Amides and thioamides as pesticides” (Bayer CropScience AG, priority 2009, dated 2013).

One data set deals with larvae of the mustard beetle (Phaedon cochleariae). Put plainly: Phaedon test (spray treatment). The data set is classed as in vivo. To be noted: application rate 500 g/ha, spray on Chinese cabbage leaf slices, after 7 days. As to the method: Phaedon Test (Spray Treatment)
Solvent: • 78.0 parts by weight of acetone • 1.5 parts by weight of dimethylformamide
(§1) Emulsifier: 0.5 part by weight of alkylaryl polyglycol ether
(§2) To produce an appropriate active ingredient formulation, 1 part by weight of active ingredient is mixed with the amounts of solvent and emulsifier specified and the concentrate is diluted to the desired concentration with emulsifier-containing water.
Chinese cabbage leaf slices (Brassica pekinensis) are sprayed with an active ingredient formulation of the desired concentration and, after drying, populated with larvae of the mustard beetle (Phaedon cochleariae).
After 7 days, the efficacy in % is determined. 100% means that all beetle larvae were killed; 0% means that no beetle larvae were killed.
Take `O=C(NCC(F)(F)F)c1cnn(-c2cccnc2)c1` [Example 3, 1-(pyridin-3-yl)-N-(2,2,2-trifluoroethyl)-1H-pyrazole-4-carboxamide]: the “efficacy in % (100% means that all beetle larvae were killed)” value was determined as 100%.

In the next data set the test system is green peach aphid (Myzus persicae). Description: Myzus test (spray treatment). The data set is classed as in vivo. To be noted: 144 h, application rate 50 g/ha, spray on Chinese cabbage leaf slices, after 6 days, read-out: efficacy in % (100% means that all aphids have been killed). The protocol:
Myzus Test (Spray Treatment)
Solvent: • 78 parts by weight of acetone • 1.5 parts by weight of dimethylformamide
as §1, §2
Chinese cabbage leaf slices (Brassica pekinensis) infested by all stages of the green peach aphid (Myzus persicae) are sprayed with an active ingredient formulation of the desired concentration.
After 6 days, the efficacy in % is determined. 100% means that all aphids have been killed; 0% means that no aphids have been killed.
Turning to `CN(C)C(=O)c1cnn(-c2cccnc2)c1` [Example 4], the pest or weed control at 50 g/ha was 90%.
Same read-out and setting: the same measure for `N#CC1(NC(=O)c2cnn(-c3cccnc3)c2)CC1` [Example 53]: 90%; for `COC(=O)C(C)NC(=O)c1cnn(-c2cccnc2)c1` (centres unmarked) [Example 55]: 90%.

The same data set, now with this note: 144 h, application rate 500 g/ha, spray on Chinese cabbage leaf slices, after 6 days, read-out: efficacy in % (100% means that all aphids have been killed).
As for `O=C(NCCF)c1cnn(-c2cccnc2)c1` [Example 9], the pest or weed control at 500 g/ha is 100%.
`O=C(NCC(F)(F)F)c1cnn(-c2cccnc2)c1` [Example 3, 1-(pyridin-3-yl)-N-(2,2,2-trifluoroethyl)-1H-pyrazole-4-carboxamide]: the pest or weed control at 500 g/ha turned out to be 100%.
The same measure, in the same setting: the value for `Cc1nn(-c2cccnc2)cc1C(=O)NCc1ncccn1` [Example 7] was 100%; that for `Cc1cc(C)nc(CNC(=O)c2cn(-c3cccnc3)nc2C)n1` [Example 49] was 100%.
Still for that read-out and setting: the same measure for `Cc1nn(-c2cccnc2)cc1C(=O)N(C)C` [Example 10]: 100%; for `Cc1nn(-c2cccnc2)cc1C(=O)NCCF` [Example 38]: 100%.
Same read-out and setting: the value for `Cc1nn(-c2cccnc2)cc1C(=O)NCC(F)F` [Example 46] was 100%.
With `COC(CNC(=O)c1cnn(-c2cccnc2)c1)OC` [Example 24], the pest or weed control at 500 g/ha came to 100%.
Still for that read-out and setting: the same measure for `Cc1nn(-c2cccnc2)cc1C(=O)N(C)CC(F)(F)F` [Example 37]: 100%; for `O=C(NCC1CC1)c1cnn(-c2cccnc2)c1` [Example 25]: 100%; for `COC(=O)C1(NC(=O)c2cnn(-c3cccnc3)c2)CC1` [Example 45]: 100%.
With `O=C(NC1CC1)c1cnn(-c2cccnc2)c1` [Example 18], the pest or weed control at 500 g/ha was 100%.
Same read-out and setting: the value for `Cc1nn(-c2cccnc2)cc1C(=O)NCC1CC1` [Example 36] was 100%; that for `O=C(NCC1OCCO1)c1cnn(-c2cccnc2)c1` [Example 22] was 100%.
Same read-out and setting: the value for `CC(C)C(C#N)NC(=O)c1cnn(-c2cccnc2)c1` (centres unmarked) [Example 41] was 100%; that for `Cc1nn(-c2cccnc2)cc1C(=O)NCC(C)(F)F` [Example 27] was 100%; that for `CN(CC(F)(F)F)C(=O)c1cnn(-c2cccnc2)c1` [Example 8] was 100%.
Still for that read-out and setting: the value for `Cc1nn(-c2cccnc2)cc1C(=O)NC(C)C1CC1` (centres unmarked) [Example 26] was 100%; that for `O=C(NCc1ncccn1)c1cnn(-c2cccnc2)c1` [Example 5] was 100%; that for `Cc1nn(-c2cccnc2)cc1C(=O)NCC(F)(F)C(F)(F)F` [Example 31] was 100%.
For `O=C(NCc1ccccn1)c1cnn(-c2cccnc2)c1` [Example 16], the pest or weed control at 500 g/ha was 100%.
Same read-out and setting: the value for `Cc1nn(-c2cccnc2)cc1C(=O)NCc1ccccn1` [Example 28] was 100%.
Turning to `O=C(NCCC(F)(F)F)c1cnn(-c2cccnc2)c1` [Example 21], the pest or weed control at 500 g/ha was 100%.
On the same count and under the same terms, the value for `O=C(NCC(F)F)c1cnn(-c2cccnc2)c1` [Example 6] was 100%.
Turning to `O=C(NCc1nc(C2CC2)no1)c1cnn(-c2cccnc2)c1` [Example 20], the pest or weed control at 500 g/ha turned out to be 100%.
The same measure, in the same setting: the same measure for `Cc1nn(-c2cccnc2)cc1C(=O)NCC1COCCO1` (centres unmarked) [Example 34]: 100%; for `CCNC(=O)c1cn(-c2cccnc2)nc1C` [Example 39]: 100%.
`COC(=O)NNC(=O)c1cn(-c2cccnc2)nc1C` [Example 50]: the pest or weed control at 500 g/ha came to 100%.
On the same count and under the same terms, the value for `Cc1nn(-c2cccnc2)cc1C(=O)NCc1nc(C2CC2)no1` [Example 48] was 100%.
On the same count and under the same terms, the same measure for `CC(F)(F)CNC(=O)c1cnn(-c2cccnc2)c1` [Example 15]: 100%; for `Cc1nn(-c2cccnc2)cc1C(=O)NC1(C(F)(F)F)CC1` [Example 47]: 100%.

Staying with this data set, now noted: in Brassica rapa, 144 h, read-out: efficacy in % (100% means that all aphids have been killed).
With `Cc1nn(-c2cccnc2)cc1C(=O)NCC(F)(F)F` [Example 2, 3-Methyl-1-(pyridin-3-yl)-N-(2,2,2-trifluoroethyl)-1H-pyrazole-4-carboxamide], the pest or weed control at 500 g/ha is 100%.

Test system in a further data set: not listed separately
Description: Determination of the logP values (formic acid method) by HPLC. The data set is classed as physicochemical. The following applies: HPLC on reversed-phase column (C 18), acidic range (pH 3.4), 55° C.; Table 1. As to the method:
1) Description of Method for Determining the LogP Values (Formic Acid Method)
The logP values reported in the table were determined according to EEC-Directive 79/831 Annex V.A8 by HPLC (High Performance Liquid Chromatography) on a reversed-phase column (C 18). Temperature: 55° C.
Eluents for the determination in the acidic range (pH 3.4):
Eluent A: acetonitrile+1 ml of formic acid/litre. Eluent B: water+0.9 ml of formic acid/litre.
Gradient: from 10% eluent A/90% eluent B to 95% eluent A/5% eluent B in 4.25 min.
The calibration was effected with unbranched alkan-2-ones (with 3 to 16 carbon atoms), whose logP values are known (determination of the logP values on the basis of the retention times by linear interpolation between two successive alkanones). The lambda-max values were determined with reference to the UV spectra from 200 nm to 400 nm in the maxima of the chromatographic signals.
Regarding `Cc1nn(-c2cccnc2)cc1C(=O)NC(C)C1CC1` (centres unmarked) [Example 26], the “logP (HCOOH)” value worked out at 1.45.

Staying with this data set, now noted: HPLC on reversed-phase column (C 18), acidic range (pH 3.4), 55° C.; Table 1; read-out: logP (HCOOH).
As for `COC(=O)NNC(=O)c1cn(-c2cccnc2)nc1C` [Example 50], the chromatographic logP was found to be 0.52.

The same data set, now with this note: reversed-phase HPLC column (C 18), pH 3.4, HPLC on reversed-phase column (C 18), acidic range (pH 3.4), 55° C.; Table 1; read-out: logP (HCOOH).
With `O=C(NCCF)c1cnn(-c2cccnc2)c1` [Example 9], the chromatographic logP was 0.56.
As to `O=C(NCC(F)(F)F)c1cnn(-c2cccnc2)c1` [Example 3, 1-(pyridin-3-yl)-N-(2,2,2-trifluoroethyl)-1H-pyrazole-4-carboxamide], the chromatographic logP came out at 1.18.
Take `Cc1nn(-c2cccnc2)cc1C(=O)NCc1ncccn1` [Example 7]: the chromatographic logP was 0.78.
The same measure, in the same setting: the same measure for `Cc1cc(C)nc(CNC(=O)c2cn(-c3cccnc3)nc2C)n1` [Example 49]: 1.2; for `CN(C)C(=O)c1cnn(-c2cccnc2)c1` [Example 4]: 0.6.
On the same count and under the same terms, the value for `Cc1nn(-c2cccnc2)cc1C(=O)N(C)C` [Example 10] was 0.7; that for `Cc1nn(-c2cccnc2)cc1C(=O)NCCF` [Example 38] was 0.87.
On to `Cc1nn(-c2cccnc2)cc1C(=O)NCC(F)F` [Example 46], for which the chromatographic logP is 1.12.
On the same count and under the same terms, the same measure for `COC(CNC(=O)c1cnn(-c2cccnc2)c1)OC` [Example 24]: 0.83; for `Cc1nn(-c2cccnc2)cc1C(=O)N(C)CC(F)(F)F` [Example 37]: 1.57; for `N#CC1(NC(=O)c2cnn(-c3cccnc3)c2)CC1` [Example 53]: 0.76.
On the same count and under the same terms, the value for `O=C(NCC1CC1)c1cnn(-c2cccnc2)c1` [Example 25] was 1.16; that for `COC(=O)C1(NC(=O)c2cnn(-c3cccnc3)c2)CC1` [Example 45] was 0.84; that for `O=C(NC1CC1)c1cnn(-c2cccnc2)c1` [Example 18] was 0.78.
Same read-out and setting: the same measure for `Cc1nn(-c2cccnc2)cc1C(=O)NCC1CC1` [Example 36]: 1.32; for `O=C(NCC1OCCO1)c1cnn(-c2cccnc2)c1` [Example 22]: 0.66.
Consider `CC(C)C(C#N)NC(=O)c1cnn(-c2cccnc2)c1` (centres unmarked) [Example 41], for which the chromatographic logP was determined as 1.4.
On the same count and under the same terms, the value for `Cc1nn(-c2cccnc2)cc1C(=O)NCC(C)(F)F` [Example 27] was 1.35; that for `CN(CC(F)(F)F)C(=O)c1cnn(-c2cccnc2)c1` [Example 8] was 1.43.
Still for that read-out and setting: the same measure for `Cc1nn(-c2cccnc2)cc1C(=O)NC(C)C1CC1` (centres unmarked) [Example 26]: 1.58; for `O=C(NCc1ncccn1)c1cnn(-c2cccnc2)c1` [Example 5]: 0.51; for `COC(=O)C(C)NC(=O)c1cnn(-c2cccnc2)c1` (centres unmarked) [Example 55]: 0.91.
On the same count and under the same terms, the value for `Cc1nn(-c2cccnc2)cc1C(=O)NCC(F)(F)C(F)(F)F` [Example 31] was 1.95; that for `O=C(NCc1ccccn1)c1cnn(-c2cccnc2)c1` [Example 16] was 0.31.
Consider `Cc1nn(-c2cccnc2)cc1C(=O)NCc1ccccn1` [Example 28], for which the chromatographic logP stood at 0.52.
Regarding `O=C(NCCC(F)(F)F)c1cnn(-c2cccnc2)c1` [Example 21], the chromatographic logP worked out at 1.31.
Still for that read-out and setting: the same measure for `O=C(NCC(F)F)c1cnn(-c2cccnc2)c1` [Example 6]: 0.87.
Still for that read-out and setting: the value for `O=C(NCc1nc(C2CC2)no1)c1cnn(-c2cccnc2)c1` [Example 20] was 1.21.
On the same count and under the same terms, the value for `Cc1nn(-c2cccnc2)cc1C(=O)NCC1COCCO1` (centres unmarked) [Example 34] was 0.91; that for `CCNC(=O)c1cn(-c2cccnc2)nc1C` [Example 39] was 0.91; that for `Cc1nn(-c2cccnc2)cc1C(=O)NCc1nc(C2CC2)no1` [Example 48] was 1.43.
For the compound `CC(F)(F)CNC(=O)c1cnn(-c2cccnc2)c1` [Example 15], the chromatographic logP turned out to be 1.11.
Same read-out and setting: the same measure for `Cc1nn(-c2cccnc2)cc1C(=O)NC1(C(F)(F)F)CC1` [Example 47]: 1.63; for `Cc1nn(-c2cccnc2)cc1C(=O)NCC(F)(F)F` [Example 2, 3-Methyl-1-(pyridin-3-yl)-N-(2,2,2-trifluoroethyl)-1H-pyrazole-4-carboxamide]: 1.45.

Still in this data set, the particulars now being: reversed-phase HPLC column (C 18), pH 3.4, formic acid method, pH 3.4; given in the preparation examples; read-out: log P (HCOOH).
As to `Cc1nn(-c2cccnc2)cc1C(=O)NCC(F)(F)F` [Example 2, 3-Methyl-1-(pyridin-3-yl)-N-(2,2,2-trifluoroethyl)-1H-pyrazole-4-carboxamide], the chromatographic logP was found to be 1.45.

In a further data set the test system is Boophilus microplus. Description: Boophilus microplus test (injection). The data set is classed as in vivo. The following applies: application rate 20 μg/animal, injected into the abdomen, after 7 days. The protocol:
Boophilus Microplus Test (Injection)
Solvent: dimethyl sulphoxide
To produce an appropriate active ingredient formulation, 10 mg of active ingredient is mixed with 0.5 ml of solvent stated and the concentrate is diluted to the desired concentration with solvent. The active ingredient solution is injected into the abdomen (Boophilus microplus); the animals are transferred to dishes and stored in a climate-controlled room. The action is monitored by the laying of fertile eggs.
After 7 days, the efficacy in % is determined. 100% means that no ticks have laid fertile eggs.
For the compound `O=C(NCCF)c1cnn(-c2cccnc2)c1` [Example 9], the “efficacy in % (100% means that no ticks have laid fertile eggs)” value came out at 100%.
